According to patent publication US20240366624A1, “METHODS AND COMPOSITIONS FOR TREATING THROMBOTIC DISEASE” (Washington University, priority 2023, published 2024):

Assays:
[1] = target: T1, MAO-A (monoamine oxidase A) (Homo sapiens, UniProt P21397); assay: MAO-A activity assay; type: biochemical
T1 sequence (P21397 1-527): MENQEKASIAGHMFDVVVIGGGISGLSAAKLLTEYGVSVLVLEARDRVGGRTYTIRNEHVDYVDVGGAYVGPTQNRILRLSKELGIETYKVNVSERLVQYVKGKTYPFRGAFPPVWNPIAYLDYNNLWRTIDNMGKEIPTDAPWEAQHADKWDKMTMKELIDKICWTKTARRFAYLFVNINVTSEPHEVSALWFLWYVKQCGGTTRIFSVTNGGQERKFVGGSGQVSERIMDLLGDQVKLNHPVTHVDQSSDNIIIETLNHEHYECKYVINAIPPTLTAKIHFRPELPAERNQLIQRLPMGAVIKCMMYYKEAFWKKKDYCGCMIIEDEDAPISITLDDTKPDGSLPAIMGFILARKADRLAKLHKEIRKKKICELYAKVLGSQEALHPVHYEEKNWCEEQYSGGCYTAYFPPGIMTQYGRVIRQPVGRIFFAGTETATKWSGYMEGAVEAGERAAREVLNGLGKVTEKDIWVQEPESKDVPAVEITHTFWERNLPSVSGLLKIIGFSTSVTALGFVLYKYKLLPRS

[2] = tested on: WT mice; assay: FeCl3-induced carotid arterial thrombosis; type: in vivo, mouse
Method: FIG. […]) is an exemplary embodiment of B12-5 having an antithrombotic effect without prolonging tail bleeding times in mice in accordance with the present disclosure. FIG. […]): Ex vivo effects of B12-5. Wild type (WT; […] One hour later, blood was drawn, followed by isolating platelets. P-selectin exposure (FIG. 19A) and αIIbβ3 integrin activation (FIG. 19B) were assessed in flow cytometry. FIG. 19C: Platelet aggregation was measured after treatment with 0.025 U/mL thrombin. The data represent the mean±SD (n=4). FIG. 19D: The plasma levels of B12-5 were analyzed by liquid chromatography-tandem mass spectrometry (LC-MS/MS) after intravenous injection of the compound (5 μg/g BW) into WT mice and quantified by comparison with a standard curve of B12-5 (mean±SD, n=3). FIG. 19E and FIG. 19F: After laser-induced cremaster arteriolar injury, intravital microscopy was conducted with WT mice pretreated with intravenous injection of saline, eptifibatide (5 μg/g BW), vehicle, or B12-5 (5 μg/g BW). The median integrated fluorescence intensities of anti-CD42c (F platelet) and anti-fibrin (F fibrin) antibodies (n=37-42 arterioles in 6 mice per group). Quantification of the antibody signal at a different time point after laser injury. FIG. 19G: Comparison of B12-5 (5 μg/g BW) with eptifibatide (5 μg/g BW) and their respective controls in inhibiting FeCl3-induced carotid artery thrombosis in WT mice. FIG. 19H and FIG. 19I: WT mice were treated with intravenous injection of vehicle control, eptifibatide (5 μg/g BW), or B12-5 (5 μg/g BW). Thirty minutes later, tail bleeding times and Hb contents were measured after amputation of the tail tip. […] Twenty-three hours later, neurological deficits were assessed by the Bederson score and grip test, and infarct volume was measured as described in Methods. […] Twenty-three hours later, the neurological deficit and infarct volume were measured as described above. […] P values determined by unpaired Student t test (FIG. […]), FIG. 19K, and FIG. 19O) or Mann-Whitney U test (FIG. 19(E-1), FIG. 19L, FIG. 19M, FIG. 19P, and FIG. 19Q). […]

SMILES: O=C(CSc1nc(O)cc(O)n1)N1c2ccccc2Sc2ccccc21 [B12-5]
- effect on MAO-A activity ([1]; 10 μM): without affecting
- inhibition of MAO-A activity ([1]; 30 μM): 30%
- MAO-A inhibition at 100 μM (%) ([1]; 100 μM): 50.7 ± 9%
- time to occlusion ([2]; 5 μg/g BW, vs vehicle control): significantly prolonged
- platelet thrombus formation ([2]; iv 5 microg/g mouse): significantly reduced
